pKi: −log10 of the molar value.
Target: T1, MCH receptor (Homo sapiens, UniProt Q99705)
T1 construct: expressed in transfected cells; host or cells: CHO cells
Assay: MCH Receptor Binding Assay
Conditions: [125I]-MCH, SPA, membranes from CHO cells expressing the MCH receptor
Procedure: Membranes from CHO cells expressing the MCH receptor were prepared by lysing cells with 5 mM HEPES for 15 min at 4C. Cell lysates were centrifuged ([…], 15 min) and the pellet was re-suspended in 5 mM HEPES. For each 96-well plate (Microlite, Dynex Technologies), 1 mg of cell membranes were incubated with 10 mg of wheat germ agglutinin SPA beads (Amersham) for 5 min at 4 C in a volume of 10 ml of binding buffer (25 mM HEPES, 10 mM MGCl2, 10 mM NaCl, 5 mM MnCl2, 0.1% BSA). The membrane/bead mixture was centrifuged (1500×g, 3.5 min), the supernatant was aspirated, and the pellet was re-suspended in 10 ml binding buffer. The centrifugation, aspiration and re-suspension were then repeated. The membrane/bead mixture (100 μl) was then added to 96-well plates containing 50 μl of 500 pM [^125I]-MCH (NEN) and […] of the appropriate concentration of compound (4× the desired final concentration). Nonspecific binding was determined by including 1 μM MCH in the binding reaction. The binding reaction was incubated at room temperature for 2 h. Plates were then analyzed in a TOPCOUNT microplate scintillation counter (Packard). Data was analyzed and Ki values were determined using GraphPad Prism.

T1 sequence (Q99705 whole entry): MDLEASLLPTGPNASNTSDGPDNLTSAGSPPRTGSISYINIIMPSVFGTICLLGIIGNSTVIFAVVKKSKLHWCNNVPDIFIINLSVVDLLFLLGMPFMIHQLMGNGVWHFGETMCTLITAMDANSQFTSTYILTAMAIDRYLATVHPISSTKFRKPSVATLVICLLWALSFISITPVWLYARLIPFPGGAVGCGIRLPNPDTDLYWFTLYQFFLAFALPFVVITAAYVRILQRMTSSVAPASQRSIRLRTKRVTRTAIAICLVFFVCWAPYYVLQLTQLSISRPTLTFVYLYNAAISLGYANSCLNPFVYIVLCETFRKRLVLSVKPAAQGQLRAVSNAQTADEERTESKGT

Structure (SMILES) | pKi
N#Cc1cccc(-c2ccc(C3(NCC(=O)Nc4cc(Cl)cc(Cl)c4)CCN(C4CCCC4)CC3)cc2)c1 | 8.49
N#Cc1cccc(-c2ccc(C3(NCC(=O)Nc4ccc(F)c(C(F)(F)F)c4)CCN(C4CCCC4)CC3)cc2)c1 | 7.80
CN(CC(=O)Nc1ccc(F)c(C(F)(F)F)c1)C1(c2ccc(-c3cccc(C#N)c3)cc2)CCN(C2CCCC2)CC1 | 7.74
N#Cc1cccc(-c2ccc(C3(NCC(=O)Nc4ccc(F)c(Cl)c4)CCN(C4CCCC4)CC3)cc2)c1 | 8.59
CN(CC(=O)Nc1ccc(F)c(Cl)c1)C1(c2ccc(-c3cccc(C#N)c3)cc2)CCN(C2CCCC2)CC1 | 8.38
N#Cc1cccc(-c2ccc(C3(NCC(=O)Nc4ccc(Cl)c(C(F)(F)F)c4)CCN(C4CCCC4)CC3)cc2)c1 | 7.64
CN(CC(=O)Nc1ccc(Cl)c(C(F)(F)F)c1)C1(c2ccc(-c3cccc(C#N)c3)cc2)CCN(C2CCCC2)CC1 | 7.80
N#Cc1cccc(-c2ccc(C3(NCC(=O)Nc4cc(F)cc(F)c4)CCN(C4CCCC4)CC3)cc2)c1 | 8.60
CN(CC(=O)Nc1cc(F)cc(F)c1)C1(c2ccc(-c3cccc(C#N)c3)cc2)CCN(C2CCCC2)CC1 | 8.21
N#Cc1cccc(-c2ccc(C3(N(CC(=O)Nc4cc(F)cc(F)c4)CC4CC4)CCN(C4CCCC4)CC3)cc2)c1 | 7.16
N#Cc1cccc(-c2ccc(C3(OCC(=O)Nc4cc(Cl)cc(Cl)c4)CCNCC3)cc2)c1 | 8.49
CN1CCC(OCC(=O)Nc2cc(Cl)cc(Cl)c2)(c2ccc(-c3cccc(C#N)c3)cc2)CC1 | 8.40
N#Cc1cccc(-c2ccc(C3(OCC(=O)Nc4cc(Cl)cc(Cl)c4)CCN(CC4CC4)CC3)cc2)c1 | 8.74
N#Cc1cccc(-c2ccc(C3(OCC(=O)Nc4cc(Cl)cc(Cl)c4)CCN(C4CCCC4)CC3)cc2)c1 | 8.66
CCN(CC(=O)Nc1ccc(F)c(Cl)c1)C1(c2ccc(-c3cccc(C#N)c3)cc2)CCN(C2CCCC2)CC1 | 7.97
N#Cc1cccc(-c2ccc(C3(OCC(=O)Nc4ccc(F)c(Cl)c4)CCN(CC4CC4)CC3)cc2)c1 | 8.70
N#Cc1cccc(-c2ccc(C3(OCC(=O)Nc4ccc(Cl)c(C(F)(F)F)c4)CCN(CC4CC4)CC3)cc2)c1 | 7.64
O=C(CNC1(c2ccc(-c3cccc(OC(F)(F)F)c3)cc2)CCN(C2CCCC2)CC1)Nc1ccc(F)c(Cl)c1 | 7.12
CC(C)(C)OC(=O)N1CCC(NCC(=O)Nc2ccc(F)c(Cl)c2)(c2ccc(-c3cccc(C#N)c3)cc2)CC1 | 7.25
N#Cc1cccc(-c2ccc(C3(NCC(=O)Nc4ccc(F)c(Cl)c4)CCNCC3)cc2)c1 | 8.52
CN(CC(=O)Nc1ccc(F)c(Cl)c1)C1(c2ccc(-c3cccc(C#N)c3)cc2)CCNCC1 | 8.33
CC(=O)N1CCC(c2ccc(-c3cccc(C#N)c3)cc2)(N(C)CC(=O)Nc2ccc(F)c(Cl)c2)CC1 | 7.60
CN(CC(=O)Nc1ccc(F)c(Cl)c1)C1(c2ccc(-c3cccc(C#N)c3)cc2)CCN(S(C)(=O)=O)CC1 | 7.15
O=C(CNC1(c2ccc(-c3cccc(F)c3)cc2)CCN(C2CCCC2)CC1)Nc1ccc(F)c(Cl)c1 | 7.00
O=C(CNC1(c2ccc(-c3cccc(Cl)c3)cc2)CCN(C2CCCC2)CC1)Nc1ccc(F)c(Cl)c1 | 7.20

Structure (SMILES) | pKi
N#Cc1cccc(-c2ccc(C3(OCC(=O)Nc4cc(Cl)cc(Cl)c4)CCN(C4CCCCC4)CC3)cc2)c1 | 7.72
CC1CCC(N2CCC(OCC(=O)Nc3cc(Cl)cc(Cl)c3)(c3ccc(-c4cccc(C#N)c4)cc3)CC2)C1 (stereo not shown) | 7.96
N#Cc1cccc(-c2ccc(C3(OCC(=O)Nc4cc(Cl)cc(Cl)c4)CCN(C4CCOCC4)CC3)cc2)c1 | 8.05
N#Cc1cccc(-c2ccc(C3(OCC(=O)Nc4cc(Cl)cc(Cl)c4)CCN(C4CCSC4)CC3)cc2)c1 (stereo not shown) | 7.72
CC1CCC(C)CC(N2CCC(OCC(=O)Nc3cc(Cl)cc(Cl)c3)(c3ccc(-c4cccc(C#N)c4)cc3)CC2)C1 (stereo not shown) | 7.70
N#Cc1cccc(-c2ccc(C3(OCC(=O)Nc4cc(Cl)cc(Cl)c4)CCN(C4Cc5ccccc5C4)CC3)cc2)c1 | 7.21
COC1CCCC(CN2CCC(OCC(=O)Nc3cc(Cl)cc(Cl)c3)(c3ccc(-c4cccc(C#N)c4)cc3)CC2)O1 (stereo not shown) | 7.70
N#Cc1cccc(-c2ccc(C3(OCC(=O)Nc4cc(Cl)cc(Cl)c4)CCN(C4C5CCCC4CCC5)CC3)cc2)c1 (stereo not shown) | 7.32
CC(C)C1CCC(N2CCC(OCC(=O)Nc3cc(Cl)cc(Cl)c3)(c3ccc(-c4cccc(C#N)c4)cc3)CC2)CC1 (stereo not shown) | 7.72
CC(=O)C1CCC(N2CCC(OCC(=O)Nc3cc(Cl)cc(Cl)c3)(c3ccc(-c4cccc(C#N)c4)cc3)CC2)CC1 (stereo not shown) | 8.22
N#Cc1cccc(-c2ccc(C3(OCC(=O)Nc4cc(Cl)cc(Cl)c4)CCN(C4CCC5CCCCC5C4)CC3)cc2)c1 (stereo not shown) | 7.44
N#Cc1cccc(-c2ccc(C3(OCC(=O)Nc4cc(Cl)cc(Cl)c4)CCN(C4CCC(C(F)(F)F)CC4)CC3)cc2)c1 (stereo not shown) | 7.31
N#Cc1cccc(-c2ccc(C3(OCC(=O)Nc4cc(Cl)cc(Cl)c4)CCN(C4CCCC(C(F)(F)F)C4)CC3)cc2)c1 (stereo not shown) | 7.07
N#Cc1cccc(-c2ccc(C3(OCC(=O)Nc4cc(Cl)cc(Cl)c4)CCN(C4CCC(c5ccccc5)CC4)CC3)cc2)c1 (stereo not shown) | 7.02
CC(C)CCN1CCC(OCC(=O)Nc2cc(Cl)cc(Cl)c2)(c2ccc(-c3cccc(C#N)c3)cc2)CC1 | 7.52
CCC(C)CN1CCC(OCC(=O)Nc2cc(Cl)cc(Cl)c2)(c2ccc(-c3cccc(C#N)c3)cc2)CC1 (stereo not shown) | 7.68
N#Cc1cccc(-c2ccc(C3(OCC(=O)Nc4cc(Cl)cc(Cl)c4)CCN(Cc4cccs4)CC3)cc2)c1 | 7.59
N#Cc1cccc(-c2ccc(C3(OCC(=O)Nc4cc(Cl)cc(Cl)c4)CCN(Cc4ccsc4)CC3)cc2)c1 | 7.57
N#Cc1cccc(-c2ccc(C3(OCC(=O)Nc4cc(Cl)cc(Cl)c4)CCN(Cc4cccc(O)c4)CC3)cc2)c1 | 7.72
N#Cc1cccc(-c2ccc(C3(OCC(=O)Nc4cc(Cl)cc(Cl)c4)CCN(Cc4ccc(O)cc4)CC3)cc2)c1 | 7.70
N#Cc1cccc(-c2ccc(C3(OCC(=O)Nc4cc(Cl)cc(Cl)c4)CCN(CCCc4ccccc4)CC3)cc2)c1 | 7.30
CC(CN1CCC(OCC(=O)Nc2cc(Cl)cc(Cl)c2)(c2ccc(-c3cccc(C#N)c3)cc2)CC1)c1ccccc1 (stereo not shown) | 7.38
COc1ccccc1CN1CCC(OCC(=O)Nc2cc(Cl)cc(Cl)c2)(c2ccc(-c3cccc(C#N)c3)cc2)CC1 | 7.82
COc1ccc(CN2CCC(OCC(=O)Nc3cc(Cl)cc(Cl)c3)(c3ccc(-c4cccc(C#N)c4)cc3)CC2)cc1 | 7.41
CC(CCN1CCC(OCC(=O)Nc2cc(Cl)cc(Cl)c2)(c2ccc(-c3cccc(C#N)c3)cc2)CC1)c1ccccc1 (stereo not shown) | 7.14

Structure (SMILES) | pKi
O=C(CNC1(c2ccc(-c3cc(Cl)ccc3Cl)cc2)CCN(C2CCCC2)CC1)Nc1ccc(F)c(Cl)c1 | 7.28
CN(CC(=O)Nc1ccc(F)c(Cl)c1)C1(c2ccc(-c3cccc(C#N)c3)cc2)CCN(CCO)CC1 | 8.00
N#Cc1cccc(-c2ccc(C3(OCC(=O)Nc4ccc(Cl)c(C(F)(F)F)c4)CCN(CCO)CC3)cc2)c1 | 7.32
N#Cc1cccc(-c2ccc(C3(OCC(=O)Nc4ccc(Cl)c(C(F)(F)F)c4)CCN(C4CCCC4)CC3)cc2)c1 | 7.31
N#Cc1cccc(-c2ccc(C3(OCC(=O)Nc4ccc(F)c(Cl)c4)CCN(CCO)CC3)cc2)c1 | 8.09
O=Cc1cccc(-c2ccc(C3(NCC(=O)Nc4ccc(F)c(Cl)c4)CCN(C4CCCC4)CC3)cc2)c1 | 7.68
O=C(CNC1(c2ccc(-c3cccc(-c4ncc[nH]4)c3)cc2)CCN(C2CCCC2)CC1)Nc1ccc(F)c(Cl)c1 | 8.08
N#Cc1cccc(-c2ccc(C3(CCC(=O)Nc4cc(Cl)cc(Cl)c4)CCN(C4CCCC4)CC3)cc2)c1 | 7.45
N#Cc1cccc(-c2ccc(C3(CCC(=O)Nc4ccc(F)c(Cl)c4)CCN(C4CCCC4)CC3)cc2)c1 | 7.59
N#Cc1cccc(-c2ccc(C3(CCC(=O)Nc4cc(F)cc(F)c4)CCN(C4CCCC4)CC3)cc2)c1 | 7.44
N#Cc1cccc(-c2ccc(C3(CCC(=O)Nc4ccc(F)c(F)c4)CCN(C4CCCC4)CC3)cc2)c1 | 7.82
CC(C)(C)OC(=O)N1CCC(CCC(=O)Nc2ccc(F)c(F)c2)(c2ccc(-c3cccc(C#N)c3)cc2)CC1 | 7.29
N#Cc1cccc(-c2ccc(C3(CCC(=O)Nc4ccc(F)c(F)c4)CCNCC3)cc2)c1 | 7.60
N#Cc1cccc(-c2ccc(C3(CCC(=O)Nc4ccc(F)c(F)c4)CCN(CC4CC4)CC3)cc2)c1 | 8.10
N#Cc1cccc(-c2ccc(C3(CCC(=O)Nc4cc(Cl)cc(Cl)c4)CCN(CC4CC4)CC3)cc2)c1 | 7.57
N#Cc1cccc(-c2ccc(C3(CCC(=O)Nc4ccc(F)c(F)c4)CCN(C4CCC4)CC3)cc2)c1 | 7.72
N#Cc1cccc(-c2ccc(C3(CCC(=O)Nc4ccc(F)c(Cl)c4)CCN(CC4CC4)CC3)cc2)c1 | 7.47
N#Cc1cccc(-c2ccc(C3(CCC(=O)Nc4cc(F)cc(F)c4)CCN(CC4CC4)CC3)cc2)c1 | 7.51
N#Cc1cccc(-c2ccc(C3(CCC(=O)Nc4cc(F)cc(C(F)(F)F)c4)CCN(CC4CC4)CC3)cc2)c1 | 7.31
CC(=O)N1CCC(CCC(=O)Nc2ccc(F)c(F)c2)(c2ccc(-c3cccc(C#N)c3)cc2)CC1 | 7.21
CCN(CC)C(=O)N1CCC(CCC(=O)Nc2ccc(F)c(F)c2)(c2ccc(-c3cccc(C#N)c3)cc2)CC1 | 7.35
N#Cc1cccc(-c2ccc(C3(CCC(=O)Nc4ccc(Cl)c(C(F)(F)F)c4)CCN(CC4CC4)CC3)cc2)c1 | 7.10
N#Cc1cccc(-c2ccc(C3(CCC(=O)Nc4cccc(OC(F)(F)F)c4)CCN(CC4CC4)CC3)cc2)c1 | 7.16
